Data from patent US20050090527A1, “Combination of H1, H3 and H4 receptor antagonists for treatment of allergic and non-allergic pulmonary inflammation, congestion and allergic rhinitis” (Schering Corporation, priority 2003, published 2005).
Like-named read-outs stand apart in the source and are kept apart here.

What was measured:
[1] = biological target: T1, human histamine H4 receptor (SP9144) (Homo sapiens, UniProt Q9H3N8); experiment: Competition binding versus [3H]-histamine on membranes of SP9144-transfected HEK293 cells
T1 construct: expressed in transfected cells; host or cells: HEK293
T1 sequence (Q9H3N8 whole entry): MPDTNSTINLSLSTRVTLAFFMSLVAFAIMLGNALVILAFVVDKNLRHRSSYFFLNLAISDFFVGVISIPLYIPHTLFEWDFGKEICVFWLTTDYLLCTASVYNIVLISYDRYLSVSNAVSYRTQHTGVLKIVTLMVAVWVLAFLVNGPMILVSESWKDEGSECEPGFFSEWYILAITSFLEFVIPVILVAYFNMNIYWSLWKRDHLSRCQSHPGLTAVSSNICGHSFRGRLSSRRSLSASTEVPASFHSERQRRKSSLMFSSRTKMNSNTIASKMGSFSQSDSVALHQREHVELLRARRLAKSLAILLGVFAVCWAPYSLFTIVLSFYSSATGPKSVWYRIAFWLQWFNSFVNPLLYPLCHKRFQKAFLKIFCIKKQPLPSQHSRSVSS
Experimental: Membrane preparation. Forty-eight hours after transfection with plasmid containing the sequence for SP9144, HEK293 cells were harvested from T150 flasks by incubating 5 minutes in 5 ml of 5 mM EDTA/Hanks' balanced salt solution followed by repeated pipeting. They were centrifuged 5 minutes at 1000×g. The EDTA/PBS was decanted and an equal volume of ice-cold 50 mM Tris-HCl, pH 7.5, was added and cells were broken up with a Polytron (PT10 tip, setting 5, 30 seconds). Nuclei and unbroken cells were sedimented at 1000×g for 10 minutes and then the supernatant was centrifuged at 50,000×g for 10 minutes. The supernatant was decanted, the pellet was resuspended by Polytron, a sample was taken for protein assay (bicinchoninic acid, Pierce; Rockford, Ill.), and the tissue was again centrifuged at 50,000×g. Pellets were stored frozen at −20° C.
Binding assay. […] Samples were filtered on GF/B filters and washed thrice with 2 ml of cold Tris buffer. Filters were dried in a microwave oven, impregnated with Meltilex wax scintillant, and counted at 45% efficiency.
Competition binding assays.
Curves were fit to the data with Prism (GraphPad Software) nonlinear least-squares curve-fitting program and Ki values were derived from IC50 values according to Cheng and Prusoff (Cheng, et al., (1973) Biochem. Pharm. 22:3099-3108).

[2] = system: LPS-induced inflammatory response in rat airways; experiment: BAL cells recovered from LPS-challenged rats (pulmonary inflammation); format: in vivo; settings: for Cells (neutrophils or total cells) counted in BAL of LPS-challenged rats compared with rats treated with a blank: oral dosing five hours before LPS; for % Inhibition of neutrophilic cellular influx into BAL in response to LPS challenge / % Inhibition of total cellular influx into BAL in response to LPS challenge: 10 mg/kg orally five hours before intratracheal LPS
Experimental: Male Sprague-Dawley rats (250-300 g) were anesthetized by inhalation of isoflurane (flow rate 1 ml/min; supplemented with O2). Using a Penn-Centry microspray needle, 0.1 ml of a 100-μg/ml LPS solution in saline was injected into the trachea. Animals not challenged with the LPS solution received 0.1 ml of saline. Animals were placed on a heat pad until they recovered from anesthesia. Afterward, they were returned to their cages and allowed food and water ad libitum. All animals survived these manipulations and no additional interventions were required to ensure their survival. Animals fasted overnight were orally dosed with either the standard PD4 inhibitor and positive-control, SB207499 (c4-cyano-4-(3-cyclopentyloxy-4-methoxy-phenyl)-r-1-cyclohexanecarboxylic acid; Barnette, et al., (1998) J. Pharm. Exp. Ther. 284: 420-426), the compound of formula 17 or vehicle as a negative-control (0.4% methylcellulose) five hours before the LPS challenge.
At appropriate time points after intratracheal challenge with LPS, animals were surgically prepared with a tracheal cannula. Surgery was performed under anesthesia. The airways were flushed with 2×2 ml of 0.9% saline and the two washings pooled. Lavage fluid was centrifuged (350 g, 4° C., 7 minutes), supernatant aspirated, erythrocytes lysed, and pellet washed in phosphate-buffered saline containing 10% heat-inactivated fetal calf serum and 10 μg/ml DNase I. The cell suspension was centrifuged, supernatant aspirated, and pellet resuspended in the same buffer. Total cell counts were performed using a Nebauer hemacytometer. Differential cell counts were conducted on Cytospin-prepared slides stained with Fisher's Leukostat stain. At least 200 cells were assessed per slide and standard morphological criteria were used to define neutrophilic cells.
The total number of cells and the number of neutrophils in the broncheoalveolar lavage (BAL) recovered from rats treated with the compound of formula 17, SB207499 or a blank were counted and compared. Fewer cells (i.e., neutrophils or total cells) were counted in the BAL of LPS-challenged rats treated with the compound of formula 17 or with SB207499 than that of rats treated with a blank. […] The data from these experiments is set forth below in Tables 6 and 7.

[3] = biological target: T2, human H4 (H4-HEK293 cells) (Homo sapiens, UniProt Q9H3N8); experiment: Membrane binding assay, [3H]-histamine, for H4 binding
T2 construct: expressed in transfected cells
T2 sequence (Q9H3N8 whole entry): as above
Experimental: (§1) In the present example, the affinities of several compounds for the H1, H3 and H4 receptors was determined by a membrane binding assay.
(§2) Materials. Rat and guinea-pig brains were obtained frozen from Rockland Immunochemicals (Gilbertsville, Pa.). Cell lines expressing recombinant human receptors were generated by using standard transfection techniques. The following radioligands were obtained from Dupont NEN (Boston, Mass.): [^3H]-pyrilamine, 23 Ci/mmol, for H1 binding; [^3H]-N′-methylhistamine, 82 Ci/mmol, for H3 binding and [^3H]-histamine, 20 Ci/mmol, for H4 binding.
(§3) Methods. Recombinant cell lines (i.e., human H1-CHO cells, human H3-HEK293 and human H4-HEK293 cells) were cultured in Dulbecco's modified Eagle's medium/10% fetal bovine serum supplemented with 2 mM glutamine, penicillin (100 U/ml), and streptomycin (100 μg/ml) in a humidified 5% CO2 atmosphere at 37° C. Selection was maintained with 0.5 mg geneticin/ml. Cells were harvested for membrane preparation by aspirating media, replacing it with Hanks' balanced salt solution/5 mM EDTA, and incubating flasks for 10 minutes at 37° C. Cells were pelleted by centrifugation at 1000×g for ten minutes at 4° C.
(§4) Membrane preparation. Membranes were prepared by disrupting cells or tissue in at least ten volumes of ice-cold 50 mM Tris-HCl, pH 7.5 at 25° C., with a Polytron. homogenates were centrifuged ten minutes at 1000×g and the supernatants were then centrifuged for ten minutes at 50,000×g. Pellets from this centrifugation step were resuspended with a Polytron, a sample was taken for protein determination (BCA; Pierce; Rockford, Ill.), and the resuspension was again centrifuged at 50,000×g. Brain membranes were stored as pellets, cell membranes as suspensions of 1 mg protein/ml Tris buffer at −20° C.
(§5) Binding assays. […] Assay mixtures were incubated for 30 minutes at 30° C. in polypropylene, 96-well, deep-well plates then filtered through 0.3% polyethylenimine-soaked GF/B filters. These were washed three times with 1.2 ml of Tris buffer, dried in a microwave oven, impregnated with Meltilex wax scintillant and counted at 40% efficiency in a Betaplate scintillation counter (Wallac). IC50 values were determined by interpolation or by nonlinear, least-squares, curve-fitting with the Prism program (GraphPad Software). Ki values were determined in the manner of Cheng and Prusoff (Cheng, et al., (1973) Biochem. Pharm. 22:3099-3108).

human H1 (H1-CHO cells) = biological target: T3, human H1 (H1-CHO cells) (Homo sapiens, UniProt P35367); experiment: Membrane binding assay, [3H]-pyrilamine, for H1 binding; settings: for H1 Ki, value given in %: concentration not given
T3 construct: expressed in transfected cells
T3 sequence (P35367 whole entry): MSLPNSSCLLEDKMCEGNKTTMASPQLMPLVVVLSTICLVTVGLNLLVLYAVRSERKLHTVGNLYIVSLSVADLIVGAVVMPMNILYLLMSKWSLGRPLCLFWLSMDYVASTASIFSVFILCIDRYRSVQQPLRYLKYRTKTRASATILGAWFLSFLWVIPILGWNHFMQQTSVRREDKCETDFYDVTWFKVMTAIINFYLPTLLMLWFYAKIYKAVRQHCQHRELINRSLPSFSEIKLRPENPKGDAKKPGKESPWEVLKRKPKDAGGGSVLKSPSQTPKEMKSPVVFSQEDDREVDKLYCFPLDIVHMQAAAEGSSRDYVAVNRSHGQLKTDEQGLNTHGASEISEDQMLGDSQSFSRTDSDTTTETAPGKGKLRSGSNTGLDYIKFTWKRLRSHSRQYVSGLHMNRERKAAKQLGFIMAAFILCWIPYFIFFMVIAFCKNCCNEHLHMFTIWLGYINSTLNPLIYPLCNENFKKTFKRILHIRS
Experimental: as §1, §2, §3, §4, §5

[4] = biological target: T4, human H3 (H3-HEK293 cells) (Homo sapiens, UniProt Q9Y5N1); experiment: Membrane binding assay, [3H]-N-methylhistamine, for H3 binding; settings: concentration not given
T4 construct: expressed in transfected cells
T4 sequence (Q9Y5N1 whole entry): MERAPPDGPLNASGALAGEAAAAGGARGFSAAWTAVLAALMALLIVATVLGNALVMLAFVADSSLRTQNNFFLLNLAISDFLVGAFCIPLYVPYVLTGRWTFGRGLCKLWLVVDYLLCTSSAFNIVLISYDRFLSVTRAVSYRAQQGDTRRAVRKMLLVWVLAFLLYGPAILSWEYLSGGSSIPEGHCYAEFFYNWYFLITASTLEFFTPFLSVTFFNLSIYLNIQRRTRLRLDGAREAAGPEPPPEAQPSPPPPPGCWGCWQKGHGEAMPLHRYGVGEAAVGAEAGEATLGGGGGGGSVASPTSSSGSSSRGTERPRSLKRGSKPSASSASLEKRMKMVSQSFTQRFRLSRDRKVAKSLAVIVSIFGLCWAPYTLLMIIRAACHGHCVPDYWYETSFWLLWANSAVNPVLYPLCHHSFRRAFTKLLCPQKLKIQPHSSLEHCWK
Experimental: Materials. Rat and guinea-pig brains were obtained frozen from Rockland Immunochemicals (Gilbertsville, Pa.). Cell lines expressing recombinant human receptors were generated by using standard transfection techniques.
Methods. […] Selection was maintained with 0.5 mg geneticin/ml. Cells were harvested for membrane preparation by aspirating media, replacing it with Hanks' balanced salt solution/5 mM EDTA, and incubating flasks for 10 minutes at 37° C. Cells were pelleted by centrifugation at 1000×g for ten minutes at 4° C.
Membrane preparation. […] Pellets from this centrifugation step were resuspended with a Polytron, a sample was taken for protein determination (BCA; Pierce; Rockford, Ill.), and the resuspension was again centrifuged at 50,000×g. Brain membranes were stored as pellets, cell membranes as suspensions of 1 mg protein/ml Tris buffer at −20° C.
as §5, with “Software).” for “Software). Ki values were determined in the manner of Cheng and Prusoff (Cheng, et al., (1973) Biochem. Pharm. 22:3099-3108).”

[5] = 18 nM [3H]-histamine, cells printed in μM
[6] = membrane binding, [3H]-histamine, read-out: H4 Ki

SMILES: NC(=NCc1ccc(Cl)cc1)SCCCc1cnc[nH]1 [Clobenpropit]
- Ki [1]: 0.0072 ± 0.0005 µM

SMILES: CN(C)CCC(c1ccc(Cl)cc1)c1ccccn1 (stereo not shown) [Chlorpheniramine]
- Ki [1, 5]: > 10 µM

SMILES: Nc1ncc(CN2CCC(F)(C(=O)N3CCC(n4c(-c5ccccn5)nc5cccnc54)CC3)CC2)cn1 [Formula 17]
- Cells (neutrophils or total cells) counted in BAL of LPS-challenged rats compared with rats treated with a blank [2]: Fewer cells

SMILES: c1nc(CC2CCN(CCCOc3ccc(CN4CCCCC4)cc3)CC2)c[nH]1 [Formula 24]
- Ki [3, 6]: 290 nM

SMILES: O=C(/C=C/c1ccc(Cc2c[nH]cn2)cc1)NCCc1ccc(Cl)cc1 [Formula 35]
- Ki [3, 6]: 1100 nM
- H1 Ki, value given in % (human H1 (H1-CHO cells)): 0%

SMILES: NC(=NCc1ccc(Cl)cc1)SCCCc1cnc[nH]1 [Formula 18]
- Ki [3]: 34 nM

SMILES: O=C(c1ccccn1)N1CCC(Cc2c[nH]cn2)CC1 [Formula 20]
- Ki [3, 6]: 38 nM

SMILES: C[C@@H](N)Cc1c[nH]cn1 [(R)-α-methylhistamine]
- Ki [1]: 0.14 ± 0.01 µM

SMILES: CC(C)(C)CCC#C[C@@H]1C[C@H]1c1c[nH]cn1 [Formula 21]
- Ki [3, 6]: 90 nM

SMILES: CNCCc1c[nH]cn1 [N^α-methylhistamine]
- Ki [1]: 0.063 ± 0.002 µM

SMILES: O=C(CCN1CCC(Cc2c[nH]cn2)CC1)NCCc1ccc(Cl)cc1 [Formula 25]
- Ki [3, 6]: 300 nM

SMILES: CC(C)(C(=O)O)c1ccc(C(=O)CCCN2CCC(OC(c3ccccc3)c3ccccc3)CC2)cc1 [Formula 36]
- H4 Ki column, value given in % ([3]; concentration not given): 2%
- H3 Ki column, value given in % [4]: 1%
- Ki (human H1 (H1-CHO cells); membrane binding, [3H]-pyrilamine): 15 nM

SMILES: CN1CCC(N(C)Cc2ccc(OCCCN3CCC(Cc4c[nH]cn4)CC3)cc2)CC1 [Formula 27]
- Ki [3, 6]: 325 nM

SMILES: O=C(NCCCCc1c[nH]cn1)C1(c2ccc(Cl)cc2)CCC1 [Formula 34]
- Ki [3, 6]: 1100 nM
- H1 Ki, value given in % (human H1 (H1-CHO cells)): 48%

SMILES: N=C(N)SCCc1cnc[nH]1 [Imetit]
- Ki [1]: 0.0031 ± 0.0007 µM

SMILES: O=C(c1cnc2ccccc2c1)N1CCC(Cc2c[nH]cn2)CC1 [Formula 19]
- Ki [3, 6]: 38 nM
- % Inhibition of neutrophilic cellular influx into BAL in response to LPS challenge [2]: 71.6%
- % Inhibition of total cellular influx into BAL in response to LPS challenge [2]: 64.5%
- H1 Ki, value given in % (human H1 (H1-CHO cells)): 0%

SMILES: Clc1ccc(C(CCNCCCCc2c[nH]cn2)c2ccccn2)cc1 (stereo not shown) [Formula 30]
- Ki [3, 6]: 480 nM

SMILES: C[C@H](N)Cc1c[nH]cn1 [(S)-α-methylhistamine]
- Ki [1]: 3.4 ± 0.3 µM

SMILES: Clc1ccc(C(=C2CCN(CCCCCc3c[nH]cn3)CC2)c2ccccn2)cc1 [Formula 31]
- Ki [3, 6]: 770 nM

SMILES: Clc1ccc(C(=C2CCN(CCCCc3c[nH]cn3)CC2)c2ccccn2)cc1 [Formula 28]
- Ki [3, 6]: 390 nM

SMILES: c1ccc2c(c1)C1CC(CNCCCCc3c[nH]cn3)C2c2ccccc21 (stereo not shown) [Formula 29]
- Ki [3, 6]: 440 nM

SMILES: CN(C)CCCSC(=N)N [Dimaprit]
- Ki ([1]; read-out: Ki ± SEM versus [3H]histamine binding to SP9144-transfected HEK293 cells, 18 nM [3H]-histamine, 70 μg membrane protein, Ki from IC50 by Cheng and Prusoff): 0.38 ± 0.07 µM

SMILES: O=C(NCc1ccc(Cc2c[nH]cn2)cc1)Nc1cc(Cl)cc(Cl)c1 [Formula 26]
- Ki [3, 6]: 320 nM
- H1 Ki, value given in % (human H1 (H1-CHO cells)): 0%

SMILES: CN/C(=N/CCSCc1nc[nH]c1C)NC#N [Cimetidine]
- Ki [1, 5]: > 10 µM

SMILES: COc1ccc([C@]2(C#N)CC[C@@H](C(=O)O)CC2)cc1OC1CCCC1 [SB207499, c4-cyano-4-(3-cyclopentyloxy-4-methoxy-phenyl)-r-1-cyclohexanecarboxylic acid, reference compound]
- % Inhibition of neutrophilic cellular influx into BAL in response to LPS challenge [2]: 68.7%
- % Inhibition of total cellular influx into BAL in response to LPS challenge [2]: 61.2%
- Cells (neutrophils or total cells) counted in BAL of LPS-challenged rats compared with rats treated with a blank [2]: Fewer cells

SMILES: CC(C)(C)c1ccc(S(=O)(=O)NCCCCc2c[nH]cn2)cc1 [Formula 32]
- Ki [3, 6]: 850 nM
- H1 Ki, value given in % (human H1 (H1-CHO cells)): 32%

SMILES: O=S(=O)(c1ccc(Cl)cc1)N1CCC(CCc2c[nH]cn2)C1 (stereo not shown) [Formula 23]
- Ki [3, 6]: 205 nM

SMILES: C/C(=C\C(=O)Nc1ccc(Cl)cc1)c1ccc(Cc2c[nH]cn2)cc1 [Formula 33]
- Ki [3, 6]: 870 nM

SMILES: O=C(CCN1CCC(Cc2c[nH]cn2)CC1)Nc1cccc(Cl)c1 [Formula 22]
- Ki [3, 6]: 92 nM
